“Also recorded” adds a separate entry of the source.
Assays:
[1] = test system: degradation of PAR (PARG); assay: Immunoblot for PAR after TMZ exposure in LN428/MPG cells; assay type: cell-based; settings: 1.5 mM TMZ
Procedure: Twenty microgram of protein was loaded on a precast 4-20% NuPAGE™ Tris-Glycine gel (Invitrogen, Carlsbad, Calif.). For whole cell extracts used in probing Poly(ADP-ribose) (PAR), 3×10^6 cells were seeded into a 100 mm cell culture dish 24 hours before drug treatment. Cells were then treated with TMZ (1.5 mM) or DMSO (control) for different periods of time. After treatment, cells were washed twice with cold PBS, collected and lysed in 400 μL of 2×Laemmli buffer (2% SDS, 20% Glycerol, 62.5 mM Tris-HCl pH6.8, 0.01% Bromophenol Blue). Samples were boiled for 8 minutes and extracts from approximately 1.5×10^5 cells were loaded each lane on a 4-12% pre-cast NuPAGE™ Tris-Glycine gel (Invitrogen, Carlsbad, Calif.) for immunoblot analysis. The following primary antibodies were used in immunoblot assays: anti-human MPG (Mab; clone 506-3D) (Trivedi et al., Mol. Pharmacol, 2008); anti-Polβ (Mab clone 61; Thermo Fisher Scientific); anti-APE1 (EMD Biosciences); anti-PCNA (Santa Cruz); anti-poly(ADP-ribose) (PAR) (Clone 10H); anti-MGMT (Novus, Littleton, Colo.).

PARG mRNA = assay: qRT-PCR of PARG mRNA in LN428/MPG cells stably expressing shRNA; assay type: cell-based; settings: LN428/MPG cells stably expressing each shRNA
Procedure: Human WT MPG, mutant MPG (N169D), WT Flag Polβ and Flag Pol β (K72A) expressing cell lines were developed by transfecting cells with corresponding plasmids using FuGene™ 6 Transfection Reagent (Roche, Indianapolis, Ind.) according to the manufacturer's protocol. Transfected cells were cultured in G418 and/or Puromycin for 2 weeks and individual clones stably expressing human MPG or Pol β were selected. Lentiviral particles were generated by co-transfection of 4 plasmids, pLKO.1-puro-TurboGFP (control, expresses GFP) or pCMV-tGFP-PARG (PARG shRNA, co-expresses PARG shRNA and GFP) together with pMD2.g(VSVG), pVSV-REV and PMDLg/pRRE, into 293-FT cells (Zufferey et al., J. Virol., 72:9873-9880, 1998; Zufferey et al., Nat. Biotechnol., 15:871-875, 1997) using FuGene™ 6 Transfection Reagent (Roche, Indianapolis, Ind.), as described previously (Tang et al., Mol. Cancer Res. 8(1):67-79, 2010). […] Cells expressing copGFP only or both copGFP and PARG specific shRNA were isolated by fluorescence activated cell sorting (FACS).
Expression of MPG, Polβ and PARP1 in the cell lines was measured by quantitative RT-PCR using an Applied Biosystems StepOnePlus™ system as described previously (Tang et al., Mol Cancer Res 8:67-79, 2010). […] Each sample was analyzed in triplicate and the results are an average of all three analyses. […]

LN428/MGMT cells = assay: Long-term cell survival assay (10 days); assay type: cell-based; settings: pre- (4 μM) and co-treatment with PJ34 (2 μM)
Procedure: (§1) Results were calculated from the average of three or four separate experiments and are reported as the percentage of treated cells relative to the cells without treatment (% control).

LN428/MGMT/MPG cells = assay: Long-term cell survival assay (10 days); assay type: cell-based; settings: pre- (4 μM) and co-treatment with PJ34 (2 μM); LN428/MGMT/MPG vs LN428/MGMT
Procedure: as §1

PARP = settings: PJ34 at 2 μM; cited from earlier work
[2] = test system: LN428 cells over-expressing mutant MPG (N169D); assay: Short-term cell survival assay (48 hours MTS assay); assay type: cell-based; settings: glycosylase dead mutant MPG (N169D) over-expressed in LN428
Procedure: as §1

[3] = test system: LN428/MPG/Flag-Pol β-K72A cells; assay: as above; assay type: cell-based; settings: 5′ dRP lyase null mutant Polβ (K72A) over-expressed in LN428/MPG
Procedure: as §1

LN428 cells = assay: as above; assay type: cell-based; settings: MX 60 mM 30 min, then TMZ with MX 30 mM 48 hours
Procedure: as §1

[4] = test system: LN428/MPG/Flag-Polβ-WT cells; assay: as above; assay type: cell-based; settings: WT Polβ over-expressed in LN428/MPG
Procedure: as §1

[5] = test system: LN428/MPG/Flag-APE1 cells; assay: as above; assay type: cell-based; settings: APE1 over-expressed in LN428/MPG
Procedure: as §1

[6] = test system: LN428/MPG cells (MPG over-expressing); assay: as above; assay type: cell-based; settings: MX 60 mM 30 min, then TMZ with MX 30 mM 48 hours; LN428/MPG vs LN428
Procedure: as §1

T98G/MPG/Polβ KD cells [7] = test system: T98G/MPG/Polβ KD cells
Procedure: as §1

T98G/MPG/Polβ KD cells [8] = assay: Long-term cell survival assay (10 days)
Procedure: as §1

T98G/MPG cells = assay: Long-term cell survival assay (10 days); settings: for ABT-888-induced potentiation of TMZ: T98G/MPG vs T98G, 50 and 100 μM TMZ, p<0.05 and p<0.01
Procedure: as §1

T98G cells = assay: Long-term cell survival assay (10 days); assay type: cell-based; settings: 50 and 100 μM TMZ
Procedure: as §1

For “PARG shRNA #4: MISSION TRC shRNA targeting PARG, SEQ ID NO: 12; used for PARG KD (CCGGGCTGAGCGAGATGTGGTTTATCTCGAGATAAACCACATCTCGCTCAGCTTTTTG)”, the “degradation of PAR following exposure to TMZ” value [1] was “greatly decreased the degradation of PAR” and the “level of PARG mRNA (rank among five shRNA constructs)” value (PARG mRNA) was “lowest”.
For CN(C)CC(=O)Nc1ccc2[nH]c(=O)c3ccccc3c2c1 [PJ34], the “PJ34-induced potentiation of TMZ” value (LN428/MGMT cells) is given as “sensitized cells to TMZ”, the “PJ34-induced potentiation of TMZ” value (LN428/MGMT/MPG cells) is given as “substantially increased PJ34-induced potentiation of TMZ; also recorded: much higher in the MPG over expressing cells” and the “level of PARP activation following exposure to TMZ” value (PARP) is given as “significantly reduced the level of PARP activation”.
For “PARG shRNA #2: MISSION TRC shRNA targeting PARG, SEQ ID NO: 10 (CCGGCGATTGCATGTCACTTACGAACTCGAGTTCGTAAGTGACATGCAATCGTTTTTG)”, the “degradation of PAR following exposure to TMZ” value [1] was “greatly decreased the degradation of PAR” and the “level of PARG mRNA (rank among five shRNA constructs)” value (PARG mRNA) was “second lowest”.
With CON [MX, Methoxyamine] the “MX-induced potentiation of TMZ” value [2] was “did not sensitize LN428 cells to a combined treatment of MX and TMZ”, the “MX-induced potentiation of TMZ” value [3] was “did not affect MX-induced potentiation of TMZ” and the “MX-induced potentiation of TMZ” value (LN428 cells) was “sensitized both cell lines to TMZ”. The “MX-induced potentiation of TMZ” value [4] was “dramatically reduced the potentiation induced by MX”, the “MX-induced potentiation of TMZ” value [5] was “did not alter the potentiation of TMZ induced by MX” and the “MX-induced potentiation of TMZ” value [6] was “dramatically increases MX-induced potentiation of TMZ; also recorded: much higher in the MPG over-expressing cells”.
In the case of Cn1nnc2c(C(N)=O)ncn2c1=O [TMZ, 3-methyl-2-oxo-1,3,4,5,8-pentazabicyclo[4.3.0]nona-4,6,8-triene-7-carbooxamide], the IC50 (T98G/MPG/Polβ KD cells [7]) is reported as under 25 µM.
In the case of C[C@]1(c2nc3c(C(N)=O)cccc3[nH]2)CCCN1 [ABT-888], the “cells killed by ABT-888 treatment alone” value (T98G/MPG/Polβ KD cells [8]; T98G/MPG/Polβ KD cells, no TMZ) is reported as “about 70%”, the “ABT-888-induced potentiation of TMZ (cytotoxicity of TMZ and ABT-888 vs TMZ alone)” value (T98G/MPG/Polβ KD cells [8]; T98G/MPG/Polβ KD, 25 and 50 μM TMZ, p<0.01) is reported as “significantly increased ABT-888-induced potentiation of TMZ; also recorded: significantly increased cytotoxicity compared to TMZ treatment alone” and the “cells killed by ABT-888 treatment alone” value (T98G/MPG cells; T98G/MPG cells, no TMZ) is reported as about 30%. For the same molecule, the “ABT-888-induced potentiation of TMZ” value (T98G/MPG cells) was “significantly increased the potentiation induced by ABT-888”, the “ABT-888-induced potentiation of TMZ” value (T98G/MPG cells; listed as A8T-888) was “significantly increased A8T-888-induced potentiation of TMZ” and the “ABT-888-induced potentiation of TMZ” value (T98G cells) was “sensitized T98G cells to TMZ”.

From patent US20130316349A1, “N-METHYLPURINE DNA GLYCOSYLASE AND POLYMERASE BETA AS BIOMARKERS FOR ALKYLATOR CHEMOTHERAPY POTENTIATION” (University of Pittsburgh - Of the Commonwealth System of …, priority 2010, published 2013)
